Reference: PubChem BioAssay (NCI)
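Exposure lasted 48 hours, with cells grown in 96-well plates and compounds tested at five concentrations. The concentration for full growth arrest is given as TGI.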

Legend:
Assay in all cases: NCI tumour cell line growth inhibition, 48 h
SF-539 CNS = test system: SF-539 CNS
COLO 205 colon = test system: COLO 205 colon
SK-MEL-5 melanoma = test system: SK-MEL-5 melanoma
OVCAR-8 ovarian = test system: OVCAR-8 ovarian
NCI-H460 lung = test system: NCI-H460 lung
SN12C renal = test system: SN12C renal
HL-60(TB) leukemia = test system: HL-60(TB) leukemia
ACHN renal = test system: ACHN renal
DU-145 prostate = test system: DU-145 prostate
UO-31 renal = test system: UO-31 renal
MDA-MB-435 = test system: MDA-MB-435
MDA-N = test system: MDA-N
M14 melanoma = test system: M14 melanoma
SK-MEL-28 melanoma = test system: SK-MEL-28 melanoma
RXF 393 renal = test system: RXF 393 renal
KM12 colon = test system: KM12 colon
PC-3 prostate = test system: PC-3 prostate
NCI-H23 lung = test system: NCI-H23 lung
EKVX NSCLC = test system: EKVX NSCLC
SR leukemia = test system: SR leukemia

## C/C1=C\[C@@H](C)C[C@@H](C)OC(=O)[C@@H](C)NC(=O)[C@H](Cc2ccc(O)c(Br)c2)N(C)C(=O)CNC(=O)[C@H](C)C1
SF-539 CNS
  TGI: 0.677 µM
COLO 205 colon
  TGI: > 100 µM
SK-MEL-5 melanoma
  TGI: > 52.8 µM
OVCAR-8 ovarian
  TGI: > 40.4 µM
NCI-H460 lung
  TGI: > 69.1 µM
SN12C renal
  TGI: > 100 µM
HL-60(TB) leukemia
  TGI: < 0.01 µM
ACHN renal
  TGI: 0.249 µM
DU-145 prostate
  TGI: > 100 µM
UO-31 renal
  TGI: 0.127 µM
MDA-MB-435
  TGI: > 44.3 µM
MDA-N
  TGI: > 100 µM
M14 melanoma
  TGI: > 100 µM
SK-MEL-28 melanoma
  TGI: 17.3 µM
RXF 393 renal
  TGI: < 0.0429 µM
KM12 colon
  TGI: > 100 µM
PC-3 prostate
  TGI: 5.04 µM

## CC1(C)CC[C@]2(C)[C@@H](O)C[C@]3(C)C(=CC[C@@H]4[C@@]5(C)CC[C@H](O)C(C)(C)[C@@H]5CC[C@]43C)[C@@H]2C1
COLO 205 colon
  TGI: > 100 µM
SK-MEL-5 melanoma
  TGI: > 100 µM
OVCAR-8 ovarian
  TGI: 74.3 µM
NCI-H460 lung
  TGI: > 100 µM
SN12C renal
  TGI: > 100 µM
HL-60(TB) leukemia
  TGI: > 100 µM
ACHN renal
  TGI: > 100 µM
NCI-H23 lung
  TGI: > 100 µM
DU-145 prostate
  TGI: > 100 µM
UO-31 renal
  TGI: > 100 µM
EKVX NSCLC
  TGI: > 100 µM
MDA-MB-435
  TGI: > 100 µM
MDA-N
  TGI: > 100 µM
M14 melanoma
  TGI: > 100 µM
SK-MEL-28 melanoma
  TGI: > 100 µM
RXF 393 renal
  TGI: 22.4 µM
KM12 colon
  TGI: > 100 µM
PC-3 prostate
  TGI: > 100 µM

## Cc1cc(OP2(=O)NCc3ccncc3O2)ccc1Cl (configuration not stated)
SF-539 CNS
  TGI: > 100 µM
COLO 205 colon
  TGI: > 100 µM
SK-MEL-5 melanoma
  TGI: > 100 µM
OVCAR-8 ovarian
  TGI: > 100 µM
NCI-H460 lung
  TGI: > 100 µM
SN12C renal
  TGI: > 100 µM
ACHN renal
  TGI: > 100 µM
NCI-H23 lung
  TGI: > 100 µM
DU-145 prostate
  TGI: > 100 µM
UO-31 renal
  TGI: > 100 µM
EKVX NSCLC
  TGI: > 100 µM
MDA-MB-435
  TGI: > 100 µM
MDA-N
  TGI: > 100 µM
M14 melanoma
  TGI: > 100 µM
SK-MEL-28 melanoma
  TGI: > 100 µM
RXF 393 renal
  TGI: > 100 µM
SR leukemia
  TGI: > 100 µM
KM12 colon
  TGI: > 100 µM
PC-3 prostate
  TGI: > 100 µM

## Fc1ccccc1-c1cc(=S)c2cc3c(cc2[nH]1)OCO3
SF-539 CNS
  TGI: > 89 µM
COLO 205 colon
  TGI: > 89 µM
SK-MEL-5 melanoma
  TGI: > 30.7 µM
OVCAR-8 ovarian
  TGI: > 100 µM
NCI-H460 lung
  TGI: > 100 µM
SN12C renal
  TGI: > 100 µM
ACHN renal
  TGI: > 100 µM
NCI-H23 lung
  TGI: > 100 µM
DU-145 prostate
  TGI: > 100 µM
UO-31 renal
  TGI: > 100 µM
EKVX NSCLC
  TGI: > 100 µM
MDA-MB-435
  TGI: > 23.6 µM
MDA-N
  TGI: > 26.7 µM
M14 melanoma
  TGI: > 100 µM
SK-MEL-28 melanoma
  TGI: > 100 µM
RXF 393 renal
  TGI: > 100 µM
SR leukemia
  TGI: > 100 µM
KM12 colon
  TGI: > 100 µM
PC-3 prostate
  TGI: > 80.2 µM

## CCOC(=O)c1ccc(NCc2ccc3nc(OC)c(OC)nc3c2)cc1
SF-539 CNS
  TGI: > 100 µM
COLO 205 colon
  TGI: > 100 µM
SK-MEL-5 melanoma
  TGI: > 100 µM
OVCAR-8 ovarian
  TGI: > 100 µM
NCI-H460 lung
  TGI: > 100 µM
SN12C renal
  TGI: > 100 µM
HL-60(TB) leukemia
  TGI: > 100 µM
ACHN renal
  TGI: > 100 µM
NCI-H23 lung
  TGI: > 100 µM
DU-145 prostate
  TGI: > 100 µM
UO-31 renal
  TGI: > 100 µM
EKVX NSCLC
  TGI: > 100 µM
MDA-MB-435
  TGI: > 100 µM
MDA-N
  TGI: > 100 µM
M14 melanoma
  TGI: > 100 µM
SK-MEL-28 melanoma
  TGI: > 100 µM
SR leukemia
  TGI: > 100 µM
KM12 colon
  TGI: > 100 µM
PC-3 prostate
  TGI: > 100 µM

## COc1ccc(C/C=C(\C)CCO)cc1
SF-539 CNS
  TGI: > 100 µM
COLO 205 colon
  TGI: > 100 µM
SK-MEL-5 melanoma
  TGI: > 100 µM
OVCAR-8 ovarian
  TGI: > 100 µM
NCI-H460 lung
  TGI: > 100 µM
SN12C renal
  TGI: > 100 µM
ACHN renal
  TGI: > 100 µM
NCI-H23 lung
  TGI: > 100 µM
DU-145 prostate
  TGI: > 100 µM
UO-31 renal
  TGI: > 100 µM
EKVX NSCLC
  TGI: > 100 µM
MDA-MB-435
  TGI: > 100 µM
MDA-N
  TGI: > 100 µM
M14 melanoma
  TGI: > 100 µM
RXF 393 renal
  TGI: > 100 µM
SR leukemia
  TGI: > 100 µM
KM12 colon
  TGI: > 100 µM
PC-3 prostate
  TGI: > 100 µM

## CC(=O)OCCCCn1nncc1Cn1ccc(=O)n(Cc2cnnn2CCCCOC(C)=O)c1=O
SF-539 CNS
  TGI: > 100 µM
COLO 205 colon
  TGI: > 100 µM
SK-MEL-5 melanoma
  TGI: > 100 µM
OVCAR-8 ovarian
  TGI: > 100 µM
SN12C renal
  TGI: > 100 µM
ACHN renal
  TGI: > 100 µM
NCI-H23 lung
  TGI: > 100 µM
DU-145 prostate
  TGI: > 100 µM
UO-31 renal
  TGI: > 100 µM
EKVX NSCLC
  TGI: > 100 µM
MDA-MB-435
  TGI: > 100 µM
MDA-N
  TGI: > 100 µM
M14 melanoma
  TGI: > 100 µM
SK-MEL-28 melanoma
  TGI: > 100 µM
RXF 393 renal
  TGI: > 100 µM
KM12 colon
  TGI: > 100 µM
PC-3 prostate
  TGI: > 100 µM

## COc1ccc(/C(=N/OCCCC(=O)O)c2cccs2)cc1
SF-539 CNS
  TGI: > 100 µM
COLO 205 colon
  TGI: > 100 µM
SK-MEL-5 melanoma
  TGI: > 100 µM
OVCAR-8 ovarian
  TGI: > 100 µM
NCI-H460 lung
  TGI: > 100 µM
SN12C renal
  TGI: > 100 µM
HL-60(TB) leukemia
  TGI: > 100 µM
ACHN renal
  TGI: > 100 µM
NCI-H23 lung
  TGI: > 100 µM
DU-145 prostate
  TGI: > 100 µM
UO-31 renal
  TGI: > 100 µM
EKVX NSCLC
  TGI: > 100 µM
MDA-MB-435
  TGI: > 100 µM
MDA-N
  TGI: > 100 µM
RXF 393 renal
  TGI: > 100 µM
KM12 colon
  TGI: > 100 µM
PC-3 prostate
  TGI: > 100 µM

## Cc1c(C)c(S(=O)(=O)N(CCCN)OCCCN)c(C)c2c1OC(C)(C)CC2
COLO 205 colon
  TGI: 32.1 µM
SK-MEL-5 melanoma
  TGI: 29 µM
OVCAR-8 ovarian
  TGI: 29.8 µM
NCI-H460 lung
  TGI: 30.3 µM
SN12C renal
  TGI: 28.4 µM
ACHN renal
  TGI: 29.6 µM
NCI-H23 lung
  TGI: 27.9 µM
DU-145 prostate
  TGI: 29.5 µM
UO-31 renal
  TGI: 31.5 µM
EKVX NSCLC
  TGI: 30.4 µM
MDA-MB-435
  TGI: 29.6 µM
MDA-N
  TGI: 29.2 µM
M14 melanoma
  TGI: 27.7 µM
SK-MEL-28 melanoma
  TGI: 28.5 µM
RXF 393 renal
  TGI: 21.4 µM
SR leukemia
  TGI: 33.4 µM
KM12 colon
  TGI: 25.6 µM
PC-3 prostate
  TGI: 24.5 µM

## O=C1/C(=C/c2ccc([N+](=O)[O-])cc2)CCCc2ccccc21
SF-539 CNS
  TGI: > 100 µM
COLO 205 colon
  TGI: > 100 µM
OVCAR-8 ovarian
  TGI: > 100 µM
NCI-H460 lung
  TGI: > 100 µM
SN12C renal
  TGI: > 100 µM
HL-60(TB) leukemia
  TGI: > 100 µM
ACHN renal
  TGI: > 100 µM
NCI-H23 lung
  TGI: > 100 µM
DU-145 prostate
  TGI: > 100 µM
UO-31 renal
  TGI: > 100 µM
EKVX NSCLC
  TGI: > 100 µM
MDA-MB-435
  TGI: > 100 µM
MDA-N
  TGI: > 100 µM
M14 melanoma
  TGI: > 100 µM
SK-MEL-28 melanoma
  TGI: > 100 µM
SR leukemia
  TGI: > 100 µM
KM12 colon
  TGI: > 100 µM
PC-3 prostate
  TGI: > 100 µM

## COc1ccc(CC2Cc3ccccc3CC(=O)N2)cc1OC (configuration not stated)
SF-539 CNS
  TGI: > 100 µM
COLO 205 colon
  TGI: > 100 µM
SK-MEL-5 melanoma
  TGI: 54.1 µM
OVCAR-8 ovarian
  TGI: > 100 µM
NCI-H460 lung
  TGI: > 100 µM
SN12C renal
  TGI: > 100 µM
HL-60(TB) leukemia
  TGI: > 100 µM
ACHN renal
  TGI: > 100 µM
NCI-H23 lung
  TGI: > 100 µM
DU-145 prostate
  TGI: > 100 µM
UO-31 renal
  TGI: > 100 µM
EKVX NSCLC
  TGI: > 100 µM
MDA-MB-435
  TGI: > 100 µM
MDA-N
  TGI: > 100 µM
M14 melanoma
  TGI: > 100 µM
SK-MEL-28 melanoma
  TGI: > 100 µM
SR leukemia
  TGI: > 100 µM
KM12 colon
  TGI: > 100 µM
PC-3 prostate
  TGI: > 100 µM

## COc1c(C)c(C/C=C(\C)CC/C=C(\C)CC/C=C(\C)CC/C=C(\C)CCC=C(C)C)c(OC)c(OC)c1OC
SF-539 CNS
  TGI: > 100 µM
COLO 205 colon
  TGI: > 100 µM
SK-MEL-5 melanoma
  TGI: 38.1 µM
OVCAR-8 ovarian
  TGI: 46.1 µM
NCI-H460 lung
  TGI: 23.2 µM
SN12C renal
  TGI: 52.7 µM
ACHN renal
  TGI: 33.3 µM
NCI-H23 lung
  TGI: 44.2 µM
DU-145 prostate
  TGI: > 100 µM
UO-31 renal
  TGI: 70.4 µM
EKVX NSCLC
  TGI: > 100 µM
MDA-MB-435
  TGI: > 100 µM
MDA-N
  TGI: > 100 µM
M14 melanoma
  TGI: > 100 µM
RXF 393 renal
  TGI: > 100 µM
SR leukemia
  TGI: 54.7 µM
KM12 colon
  TGI: 29.1 µM
PC-3 prostate
  TGI: > 100 µM
